pIC50: −log10 of the molar value.
Test system: KRAS PDC multicell spheroid viability
Test: Anticancer human tumor 825966-067-R-J1-PDC patient-derived colon carcinoma cell line growth inhibition [KRAS2]
Conditions: for pIC50: curve of first compound; for viability, T/C: stronger effect = lower value
Method in brief: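 KRAS-mutant tumor cells were grown as spheroids with HUVEC endothelial cells and human MSCs as stroma. Targeted agents were tested alone and with KRAS pathway inhibitors. Doses started at or near clinical Cmax, or 10 microM, descending half-log.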

[1] = second compound 0.1 µM, first compound 0.01 µM
[2] = second compound 0.1 µM, first compound 0.0316 µM
[3] = second compound 0.1 µM, first compound 0.1 µM
[4] = second compound 0.1 µM, first compound 0.316 µM
[5] = second compound 0.1 µM, first compound 1 µM
[6] = second compound 0.1 µM, first compound 3.16 µM
[7] = second compound 0.316 µM, first compound 0.01 µM
[8] = second compound 0.316 µM, first compound 0.0316 µM
[9] = second compound 0.316 µM, first compound 0.1 µM
[10] = second compound 0.316 µM, first compound 0.316 µM
[11] = second compound 0.316 µM, first compound 1 µM
[12] = second compound 0.316 µM, first compound 3.16 µM
[13] = second compound 1 µM, first compound 0.01 µM
[14] = second compound 1 µM, first compound 0.0316 µM
[15] = second compound 1 µM, first compound 0.1 µM
[16] = second compound 1 µM, first compound 0.316 µM
[17] = second compound 1 µM, first compound 1 µM
[18] = second compound 1 µM, first compound 3.16 µM
[19] = second compound 3.16 µM, first compound 0.01 µM
[20] = second compound 3.16 µM, first compound 0.0316 µM
[21] = second compound 3.16 µM, first compound 0.1 µM
[22] = second compound 3.16 µM, first compound 0.316 µM
[23] = second compound 3.16 µM, first compound 1 µM
[24] = second compound 3.16 µM, first compound 3.16 µM
[25] = second compound 10 µM, first compound 0.01 µM
[26] = second compound 10 µM, first compound 0.0316 µM
[27] = second compound 10 µM, first compound 0.1 µM
[28] = second compound 10 µM, first compound 0.316 µM
[29] = second compound 10 µM, first compound 1 µM
[30] = second compound 10 µM, first compound 3.16 µM
[31] = second compound 0.1 µM, first compound 0.00316 µM
[32] = second compound 0.316 µM, first compound 0.00316 µM
[33] = second compound 1 µM, first compound 0.00316 µM
[34] = second compound 3.16 µM, first compound 0.00316 µM
[35] = second compound 10 µM, first compound 0.00316 µM
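Further: spheroids exposed to compounds for 7 days.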
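Wherever viability, T/C is given: 100% = DMSO vehicle control viability.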

Compound	pIC50 (second compound 0.1 µM)	pIC50 (second compound 0.316 µM)	pIC50 (second compound 1 µM)	pIC50 (second compound 3.16 µM)	pIC50 (second compound 10 µM)	viability, T/C [2] [%]	viability, T/C [3] [%]	viability, T/C [4] [%]	viability, T/C [5] [%]	viability, T/C [8] [%]	viability, T/C [9] [%]	viability, T/C [10] [%]	viability, T/C [11] [%]	viability, T/C [14] [%]	viability, T/C [15] [%]	viability, T/C [16] [%]	viability, T/C [17] [%]	viability, T/C [20] [%]	viability, T/C [21] [%]	viability, T/C [22] [%]	further results
CC(=O)OC12COC1CC(O)C1(C)C(=O)C(O)C3=C(C)C(OC(=O)C(O)C(NC(=O)OC(C)(C)C)c4ccccc4)CC(O)(C(OC(=O)c4ccccc4)C21)C3(C)C (stereo not given) + COc1cc2nc(C)nc(NC(C)c3cc(N)cc(C(F)(F)F)c3)c2cc1OC1CCOC1	> 8.00	> 8.00	> 8.00	> 8.00	> 8.00	24.6	35.8	17.3	26.8	29.3	23.1	38.4	24	29.3	27.6	18.7	24.7	13.4	29.2	16.4	viability, T/C [1]: 18.9%; viability, T/C [6]: 34.5%; viability, T/C [7]: 23.8%; viability, T/C [12]: 44%; viability, T/C [13]: 16.9%; viability, T/C [18]: 29.6%; viability, T/C [19]: 16.6%; viability, T/C [23]: 21.3%; viability, T/C [24]: 25.1%; viability, T/C [25]: 11.7%; viability, T/C [26]: 15%; viability, T/C [27]: 19.3%; viability, T/C [28]: 14.2%; viability, T/C [29]: 20.9%; viability, T/C [30]: 12.4%
CCN1CCN(Cc2ccc(Nc3ncc(F)c(-c4cc(F)c5nc(C)n(C(C)C)c5c4)n3)nc2)CC1 + C=CC(=O)N1CCN(c2nc(=O)n(-c3c(C)ccnc3C(C)C)c3nc(-c4c(O)cccc4F)c(F)cc23)C(C)C1	< 6.00	< 6.00	< 6.00	< 6.00	6.13	101	96.3	143	119	112	118	153	111	102	114	163	83	126	121	155	viability, T/C [31]: 90%; viability, T/C [1]: 107%; viability, T/C [32]: 80.8%; viability, T/C [7]: 85.9%; viability, T/C [33]: 87.3%; viability, T/C [13]: 84.8%; viability, T/C [34]: 89.5%; viability, T/C [19]: 92.4%; viability, T/C [23]: 76.8%; viability, T/C [35]: 104%; viability, T/C [25]: 102%; viability, T/C [26]: 100%; viability, T/C [27]: 143%; viability, T/C [28]: 117%; viability, T/C [29]: 27.9%
CCN1CCN(Cc2ccc(Nc3ncc(F)c(-c4cc(F)c5nc(C)n(C(C)C)c5c4)n3)nc2)CC1 + COc1cc2nc(C)nc(NC(C)c3cc(N)cc(C(F)(F)F)c3)c2cc1OC1CCOC1	< 6.00	< 6.00	< 6.00	< 6.00	7.50	121	170	129	183	111	132	172	161	104	152	179	92.7	161	158	171	viability, T/C [31]: 99.6%; viability, T/C [1]: 111%; viability, T/C [32]: 99.3%; viability, T/C [7]: 109%; viability, T/C [33]: 103%; viability, T/C [13]: 109%; viability, T/C [34]: 118%; viability, T/C [19]: 142%; viability, T/C [23]: 50.1%; viability, T/C [35]: 82.9%; viability, T/C [25]: 87.8%; viability, T/C [26]: 38.3%; viability, T/C [27]: 31.5%; viability, T/C [28]: 5.53%; viability, T/C [29]: 1.46%
CC(C)NCC(C(=O)N1CCN(c2ncnc3c2C(C)CC3O)CC1)c1ccc(Cl)cc1 (stereo not given) + COc1cc2nc(C)nc(NC(C)c3cc(N)cc(C(F)(F)F)c3)c2cc1OC1CCOC1	5.60	5.61	5.76	5.73	> 7.50	122	113	148	97.1	103	129	122	130	114	128	151	75.7	111	125	104	viability, T/C [6]: 39.4%; viability, T/C (second compound 0.1 µM, first compound 10 µM): 11.2%; viability, T/C [12]: 29.7%; viability, T/C (second compound 0.316 µM, first compound 10 µM): 8.59%; viability, T/C [18]: 37.4%; viability, T/C (second compound 1 µM, first compound 10 µM): 7.58%; viability, T/C [23]: 97.7%; viability, T/C [24]: 10.9%; viability, T/C (second compound 3.16 µM, first compound 10 µM): 5.94%; viability, T/C [26]: 22.4%; viability, T/C [27]: 5.84%; viability, T/C [28]: 3.69%; viability, T/C [29]: 1.56%; viability, T/C [30]: 2.14%; viability, T/C (second compound 10 µM, first compound 10 µM): 3.53%

Reference: PubChem BioAssay AID1963865 (Molecular Pharmacology Branch, DTP, NCI, 2024)
